# Results as given in patent US20250381198A1 (Melt Pharmaceuticals, Inc., priority 2024, published 2025).
# Experiments:
# [1] = tested on: subjects undergoing cataract extraction with lens replacement (CELR); assay: Phase 2: subjects achieving analgesia response (NPRS < 4); type: in vivo, human; settings: Full Analysis Set; for Subjects achieving analgesia response (observed): Yes: NPRS < 4 at the available four intraoperative timepoints
# Method: The number of subjects achieving analgesia response (observed) in the full analysis set was determined. Success in analgesia response was defined as NPRS<4 at the available at the available four intraoperative timepoints and a failure otherwise (e.g., any interoperative pain rescue was assumed to be a failure. Results are provided in TABLE 25. The number of subjects completing the surgery is provided in TABLE 26, and the number of subjects completing the surgery without interruption is provided in TABLE 27. For this measure, subjects completing the surgery without interruption (other than rescue medication) due to pain or anxiety were considered successes. The number of subjects requiring rescue sedative medication and those requiring analgesic medication are provided in TABLES 28 and 29, respectively. For all TABLES 25-29, p-Values between pairs of treatments were calculated and are provided.
# [2] = tested on: subjects undergoing cataract extraction with lens replacement (CELR); assay: Phase 2: treatment-emergent ocular adverse events and serious adverse events; settings: for Cataract operation complication, % / Conjunctivitis bacterial, % / Corneal abrasion, % / Corneal oedema, % / Endophthalmitis, % / Eye disorders, % / Eye pain, % / Foreign body sensation in eyes, % / General disorders and administration site conditions, % / Infections and infestations, % / Injury, poisoning and procedural complications, % / Intraocular pressure increased, % / Investigations, % / Ocular hypertension, % / Pain, % / Paracentesis eye, % / Procedural pain, % / Subjects with Any Treatment-Emergent Ocular AEs, % / Vision blurred, %: Full Analysis Set; for Subjects who experienced a treatment-emergent ocular adverse event, study eye: overall, MELT-300, midazolam alone, ketamine alone
# Method: The study eye (TABLE 32) non-study eye (TABLE 33), or either eye (TABLE 34) was assessed. TEAES were defined as events that started on or after the date of the study drug administration through the end of Visit 4 or early withdrawal. Subjects with one or more adverse event within a level of Medical Dictionary for Regulatory Activities (MedDRA) were counted only once in that level. […] TEAEs of special interest by system, organ class, and preferred term are provided in TABLE 35 for the full analysis set.
# [3] = tested on: subjects undergoing cataract extraction with lens replacement (CELR); assay: Phase 3: intraoperative supplemental analgesia; type: in vivo, human; settings: intention-to-treat analysis set
# [4] = tested on: subjects undergoing cataract extraction with lens replacement (CELR); assay: Phase 3: requirement for rescue sedation medication (first key secondary); type: in vivo, human; settings: for Requirement for rescue sedation medication - n: number of subjects
# Method: Analysis of the first key secondary analysis of requirement for rescue sedation medication was performed. Requirement for rescue sedation medication was defined as a subject that received rescue sedation medication during the preoperative or intraoperative period. Group comparisons and statistics were analogous to those for TABLES 42-44.
# [5] = tested on: subjects undergoing cataract extraction with lens replacement (CELR); assay: Phase 3: patient satisfaction (5-point Likert scale); type: in vivo, human; design: key to Patient Satisfaction Scores, Min / Patient Satisfaction Scores, Max: 5=very satisfied; 4=satisfied; 3=neither satisfied nor dissatisfied; 2=dissatisfied; 1=very dissatisfied; settings: ITT analysis set
# Method: (§1) Patient satisfaction with the operative experience was measured at the Follow-Up visit using a 5-point Likert scale (5=very satisfied; 4=satisfied; 3=neither satisfied nor dissatisfied; 2=dissatisfied; 1=very dissatisfied). […] The means were compared using 2-sample t-tests and the Satterthwaite method. The proportion of satisfied responses (‘Very Satisfied’ or ‘Satisfied’, pooled) were tested using a Pearson's chi-square test; and a Fisher's exact test was used instead if any expected values were <5.
# [6] = tested on: subjects undergoing cataract extraction with lens replacement (CELR); assay: Phase 3: surgery completion; type: in vivo, human
# Excerpt: A plot of the Kaplan-Meier Curve for time to achieve preoperative target sedation level for the all-treated analysis set is provided in FIG. 5.
# [7] = tested on: subjects undergoing cataract extraction with lens replacement (CELR); assay: Phase 3: rescue sedation medication use preoperatively and intraoperatively; type: in vivo, human
# Excerpt: A secondary analysis of rescue sedation medication use (both preoperatively and intraoperatively) for the ITT analysis set is shown in TABLE 51.
# [8] = tested on: subjects undergoing cataract extraction with lens replacement (CELR); assay: Phase 3: surgeon satisfaction (5-point Likert scale); type: in vivo, human; design: key to Surgeon Satisfaction Scores, Min / Surgeon Satisfaction Scores, Max: 5=very satisfied; 4=satisfied; 3=neither satisfied nor dissatisfied; 2=dissatisfied; 1=very dissatisfied; settings: ITT analysis set
# Method: as §1, with “Surgeon” for “Patient”, “postoperatively on Day 1” for “at the Follow-Up visit”
# [9] = Non-Study Eye (as printed in Table 33)
# [10] = ITT Analysis Set, number of subjects
compound,measurement,setting,value
"CNC1(c2ccccc2Cl)CCCCC1=O (stereo not drawn) [Ketamine, 2-(2-chlorophenyl)-2-(methylamino)cyclohexanone]",Subjects achieving analgesia response (observed): No,[1],40 (50.6) n (%)
same,Subjects achieving analgesia response (observed): Yes,[1],39 (49.4) n (%)
same,"Cataract operation complication, %",[2]; Either Eye,(0) %
same,"Conjunctivitis bacterial, %",[2]; Either Eye,(1.2) %
same,"Corneal abrasion, %",[2]; Either Eye,(0) %
same,"Corneal oedema, %",[2]; Either Eye,(1.2) %
same,"Endophthalmitis, %",[2]; Either Eye,(1.2) %
same,"Eye disorders, %",[2]; Either Eye,(5.9) %
same,"Eye pain, %",[2]; Either Eye,(3.5) %
same,"Foreign body sensation in eyes, %",[2]; Either Eye,(0) %
same,"General disorders and administration site conditions, %",[2]; Either Eye,(0) %
same,"Infections and infestations, %",[2]; Either Eye,(2.4) %
same,"Injury, poisoning and procedural complications, %",[2]; Either Eye,(0) %
same,"Intraocular pressure increased, %",[2]; Either Eye,(1.2) %
same,"Investigations, %",[2]; Either Eye,(1.2) %
same,"Ocular hypertension, %",[2]; Either Eye,(1.2) %
same,"Pain, %",[2]; Either Eye,(0) %
same,"Paracentesis eye, %",[2]; Either Eye,(0) %
same,"Procedural pain, %",[2]; Either Eye,(0) %
same,"Subjects with Any Treatment-Emergent Ocular AEs, %",[2]; Either Eye,(8.2) %
same,"Vision blurred, %",[2]; Either Eye,(0) %
same,"Paracentesis eye, %",[2]; [9],(0) %
same,"Conjunctivitis bacterial, %",[2]; Non-Study Eye,(1.2) %
same,"Eye disorders, %",[2]; Non-Study Eye,(0) %
same,"Eye pain, %",[2]; Non-Study Eye,(0) %
same,"Infections and infestations, %",[2]; Non-Study Eye,(1.2) %
same,"Subjects with Any Treatment-Emergent Ocular AEs, %",[2]; Non-Study Eye,(1.2) %
same,"Vision blurred, %",[2]; Non-Study Eye,(0) %
same,"Cataract operation complication, %",[2]; Study Eye,(0) %
same,"Corneal abrasion, %",[2]; Study Eye,(0) %
same,"Corneal oedema, %",[2]; Study Eye,(1.2) %
same,"Endophthalmitis, %",[2]; Study Eye,(1.2) %
same,"Eye disorders, %",[2]; Study Eye,(5.9) %
same,"Eye pain, %",[2]; Study Eye,(3.5) %
same,"Foreign body sensation in eyes, %",[2]; Study Eye,(0) %
same,"General disorders and administration site conditions, %",[2]; Study Eye,(0) %
same,"Infections and infestations, %",[2]; Study Eye,(1.2) %
same,"Injury, poisoning and procedural complications, %",[2]; Study Eye,(0) %
same,"Intraocular pressure increased, %",[2]; Study Eye,(1.2) %
same,"Investigations, %",[2]; Study Eye,(1.2) %
same,"Ocular hypertension, %",[2]; Study Eye,(1.2) %
same,"Pain, %",[2]; Study Eye,(0) %
same,"Procedural pain, %",[2]; Study Eye,(0) %
same,"Subjects with Any Treatment-Emergent Ocular AEs, %",[2]; Study Eye,(7.1) %
same,"Subjects who experienced a treatment-emergent ocular adverse event, study eye",[2],7.1%
"Cc1ncc2n1-c1ccc(Cl)cc1C(c1ccccc1F)=NC2 [Midazolam, 8-chloro-6-(2-fluorophenyl)-1-methyl-4H-imidazo[1,5-a][1,4]benzodiazepine]",Subjects achieving analgesia response (observed): No,[1],48 (59.3) n (%)
same,Subjects achieving analgesia response (observed): Yes,[1],33 (40.7) n (%)
same,Subjects who received intraoperative supplemental analgesia,[3],1.1%
same,Requirement for rescue sedation medication - %,[4]; All-Treated Analysis Set,33.7%
same,Requirement for rescue sedation medication - n,[4]; All-Treated Analysis Set,30
same,Requirement for rescue sedation medication - %,[4]; ITT Analysis Set,33.7%
same,Requirement for rescue sedation medication - n,[4]; ITT Analysis Set,30
same,Subjects who required rescue sedation medication,"[4]; ITT analysis set, preoperative or intraoperative period",33.7%
same,Requirement for rescue sedation medication - %,[4]; PP Analysis Set,33.7%
same,Requirement for rescue sedation medication - n,[4]; PP Analysis Set,30
same,Subjects who required rescue sedation medication,[4]; PP analysis set,33.7%
same,Subjects who required rescue sedation medication,[4]; all-treated analysis set,33.7%
same,"Patient Satisfaction Scores, Max",[5]; 5-point Likert scale,5
same,"Patient Satisfaction Scores, Mean ± SD",[5]; 5-point Likert scale,4.8 ± 0.55
same,"Patient Satisfaction Scores, Median",[5]; 5-point Likert scale,5.0
same,"Patient Satisfaction Scores, Min",[5]; 5-point Likert scale,2
same,Patient Satisfaction Score 1 = Very Dissatisfied,[5],0 n
same,Completed surgery without intervention due to pain or anxiety,[6]; ITT Analysis Set,89 (100.0) n (%)
same,Completed the surgery,[6]; ITT Analysis Set,89 (100.0) n (%)
same,Subjects who completed the surgery,[6]; ITT analysis set,100.0%
same,"Subjects Completed Surgery, %","[6]; Summary of Disposition, value in parentheses, percent of ITT set",(100)
same,Received intraoperative rescue sedation medication - %,[7]; ITT Analysis Set,16.9%
same,Received preoperative rescue sedation medication - %,[7]; ITT Analysis Set,18.0%
same,Received intraoperative rescue sedation medication - n,[7]; [10],15
same,Received preoperative rescue sedation medication - n,[7]; [10],16
same,Subjects who received intraoperative rescue sedation medication,[7]; ITT analysis set,16.9%
same,Subjects who received preoperative rescue sedation medication,[7]; ITT analysis set,18.0%
same,"Surgeon Satisfaction Scores, Max",[8]; 5-point Likert scale,5
same,"Surgeon Satisfaction Scores, Mean ± SD",[8]; 5-point Likert scale,4.8 ± 0.56
same,"Surgeon Satisfaction Scores, Median",[8]; 5-point Likert scale,5.0
same,"Surgeon Satisfaction Scores, Min",[8]; 5-point Likert scale,2
same,Surgeon Satisfaction Score 1 = Very Dissatisfied,[8],0 n
same,"Cataract operation complication, %",[2]; Either Eye,(0) %
same,"Conjunctivitis bacterial, %",[2]; Either Eye,(0) %
same,"Corneal abrasion, %",[2]; Either Eye,(0) %
same,"Corneal oedema, %",[2]; Either Eye,(0) %
same,"Endophthalmitis, %",[2]; Either Eye,(0) %
same,"Eye disorders, %",[2]; Either Eye,(5.7) %
same,"Eye pain, %",[2]; Either Eye,(3.4) %
same,"Foreign body sensation in eyes, %",[2]; Either Eye,(0) %
same,"General disorders and administration site conditions, %",[2]; Either Eye,(0) %
same,"Infections and infestations, %",[2]; Either Eye,(0) %
same,"Injury, poisoning and procedural complications, %",[2]; Either Eye,(1.1) %
same,"Intraocular pressure increased, %",[2]; Either Eye,(2.3) %
same,"Investigations, %",[2]; Either Eye,(2.3) %
same,"Ocular hypertension, %",[2]; Either Eye,(1.1) %
same,"Pain, %",[2]; Either Eye,(0) %
same,"Paracentesis eye, %",[2]; Either Eye,(0) %
same,"Procedural pain, %",[2]; Either Eye,(1.1) %
same,"Subjects with Any Treatment-Emergent Ocular AEs, %",[2]; Either Eye,(9.2) %
same,"Vision blurred, %",[2]; Either Eye,(1.1) %
same,"Paracentesis eye, %",[2]; [9],(0) %
same,"Conjunctivitis bacterial, %",[2]; Non-Study Eye,(0) %
same,"Eye disorders, %",[2]; Non-Study Eye,(1.1) %
same,"Eye pain, %",[2]; Non-Study Eye,(0) %
same,"Infections and infestations, %",[2]; Non-Study Eye,(0) %
same,"Subjects with Any Treatment-Emergent Ocular AEs, %",[2]; Non-Study Eye,(1.1) %
same,"Vision blurred, %",[2]; Non-Study Eye,(1.1) %
same,"Cataract operation complication, %",[2]; Study Eye,(0) %
same,"Corneal abrasion, %",[2]; Study Eye,(0) %
same,"Corneal oedema, %",[2]; Study Eye,(0) %
same,"Endophthalmitis, %",[2]; Study Eye,(0) %
same,"Eye disorders, %",[2]; Study Eye,(4.6) %
same,"Eye pain, %",[2]; Study Eye,(3.4) %
same,"Foreign body sensation in eyes, %",[2]; Study Eye,(0) %
same,"General disorders and administration site conditions, %",[2]; Study Eye,(0) %
same,"Infections and infestations, %",[2]; Study Eye,(0) %
same,"Injury, poisoning and procedural complications, %",[2]; Study Eye,(1.1) %
same,"Intraocular pressure increased, %",[2]; Study Eye,(2.3) %
same,"Investigations, %",[2]; Study Eye,(2.3) %
same,"Ocular hypertension, %",[2]; Study Eye,(1.1) %
same,"Pain, %",[2]; Study Eye,(0) %
same,"Procedural pain, %",[2]; Study Eye,(1.1) %
same,"Subjects with Any Treatment-Emergent Ocular AEs, %",[2]; Study Eye,(8.0) %
same,"Subjects who experienced a treatment-emergent ocular adverse event, study eye",[2],8.0%
